Measurements: paper PMC4974565, “Rapid construction of metabolite biosensors using domain-insertion profiling” (Nature Communications, 2016)

Target: T1, Tre-C04 (TMBP-cpGFP biosensor; T. litoralis D-trehalose/D-maltose-binding protein) (Thermococcus litoralis, UniProt Q7LYW7)
T1 construct: gene malE; residues 46-450 of TMBP fused to five N-terminal residues of mature E. coli MBP, codon-optimised; expressed in E. coli Tuner, Ni-NTA purified
Assay: cpGFP fluorescence dose-response, purified biosensor, four-parameter fit
Details: 500 nM protein; PBS; 0-50 μM sugar; Ex 485 / Em 515 nm

T1 sequence (Q7LYW7 374-450): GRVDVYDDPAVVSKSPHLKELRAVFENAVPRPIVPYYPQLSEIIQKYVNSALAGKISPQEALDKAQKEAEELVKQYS
T1 sequence (Q7LYW7 46-373): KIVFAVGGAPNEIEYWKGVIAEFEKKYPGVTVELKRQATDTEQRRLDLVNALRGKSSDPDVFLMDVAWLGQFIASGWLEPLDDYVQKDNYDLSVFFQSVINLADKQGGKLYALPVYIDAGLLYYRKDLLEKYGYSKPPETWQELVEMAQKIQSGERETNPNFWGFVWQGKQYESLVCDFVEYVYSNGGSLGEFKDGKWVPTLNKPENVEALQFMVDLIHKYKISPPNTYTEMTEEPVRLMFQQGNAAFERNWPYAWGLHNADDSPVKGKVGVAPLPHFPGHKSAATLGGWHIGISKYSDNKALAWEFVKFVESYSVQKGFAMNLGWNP

OC[C@H]1O[C@H](O[C@H]2[C@H](O)[C@@H](O)C(O)O[C@@H]2CO)[C@H](O)[C@@H](O)[C@@H]1O (some centres unmarked) [maltose]
Kd: 81 ± 1 nM

OC[C@H]1O[C@H](O[C@H]2O[C@H](CO)[C@@H](O)[C@H](O)[C@H]2O)[C@H](O)[C@@H](O)[C@@H]1O [trehalose]
Kd: 53 ± 1 nM
